US20250290014A1, “DETERGENT COMPOSITION” (Saraya Co., Ltd., priority 2022, published 2025)

Test system: human three-dimensional cultured epidermis model
Assay: Skin irritation of fatty acid alkali metal salts, OECD TG439 (Experimental Example 3)
Format: cell-based
Details: 0.1 M fatty acid aqueous solution, 25 μL, 15 minutes exposure, N=3; ≤50% viability irritating
Description: The skin irritation of alkali metal salts of various fatty acids (potassium laurate, potassium myristate, potassium palmitate, and potassium oleate) was evaluated by the following method based on OECD Test Guideline TG439. […]

CCCCCCCCCCCC(=O)[O-].[K+] [lauric acid salt, potassium laurate]
Skin irritation determination from cell viability (FIG. 3): irritating
